# Results taken from patent US11925655B2, “FAP-activated therapeutic agents, and uses related thereto” (Bach Biosciences, LLC, priority 2014, dated 2024).
# Read-outs that look alike come from different tables or passages of the source.
# Experiments:
# HEK-Mock cells = assay: CellTiter-Blue cell viability assay with HEK-Mock cells; assay type: cell-based; conditions: Homo sapiens, 72 h
# HEK-mFAP cells = assay: CellTiter-Blue cell viability assay with HEK-mFAP cells; assay type: cell-based, human; conditions: Homo sapiens, 72 h
# MCF-7 = assay: CellTiter-Blue cell viability assay: MCF-7; assay type: cell-based; conditions: Homo sapiens, MCF7, 5057DOX assay 5, 72 hour incubation
# OVCAR-3 = assay: CellTiter-Blue cell viability assay: OVCAR-3; assay type: cell-based; conditions: Homo sapiens
# SK-OV-3 = assay: CellTiter-Blue cell viability assay: SK-OV-3; assay type: cell-based; conditions: Homo sapiens
# FAP [1] = molecular target: T1, FAP (Homo sapiens, UniProt Q12884); assay: FAP digest of 5057DOX (kinetics); assay type: biochemical
# T1 sequence (Q12884 1-760): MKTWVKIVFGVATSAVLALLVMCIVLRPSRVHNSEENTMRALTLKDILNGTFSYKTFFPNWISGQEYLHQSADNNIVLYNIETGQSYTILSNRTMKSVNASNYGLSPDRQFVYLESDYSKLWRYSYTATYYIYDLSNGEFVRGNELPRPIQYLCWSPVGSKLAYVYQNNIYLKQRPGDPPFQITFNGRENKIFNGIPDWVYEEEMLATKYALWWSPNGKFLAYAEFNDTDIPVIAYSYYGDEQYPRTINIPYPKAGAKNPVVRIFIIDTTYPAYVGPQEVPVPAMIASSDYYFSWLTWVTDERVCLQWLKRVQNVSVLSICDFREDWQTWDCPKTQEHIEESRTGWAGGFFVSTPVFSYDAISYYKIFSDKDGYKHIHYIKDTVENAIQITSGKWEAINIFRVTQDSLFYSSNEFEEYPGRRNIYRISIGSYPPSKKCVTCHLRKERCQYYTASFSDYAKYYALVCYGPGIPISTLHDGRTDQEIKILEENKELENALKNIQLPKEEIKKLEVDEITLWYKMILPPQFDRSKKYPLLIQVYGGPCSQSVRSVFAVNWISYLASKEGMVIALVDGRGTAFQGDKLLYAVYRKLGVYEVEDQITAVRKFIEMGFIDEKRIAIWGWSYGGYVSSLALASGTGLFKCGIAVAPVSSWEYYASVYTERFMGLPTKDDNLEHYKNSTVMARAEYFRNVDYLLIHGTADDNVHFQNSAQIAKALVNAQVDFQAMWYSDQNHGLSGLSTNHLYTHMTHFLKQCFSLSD
# FAP [2] = molecular target: T1, FAP; assay: Selectivity of FAP over PREP (5057DOX activation by recombinant enzyme); assay type: biochemical; conditions: 240 nM 5057DOX, 12, 24 or 48 nM recombinant enzyme, 37° C., FIG. 12
# Description: Recombinant enzyme (FAP or PREP) was combined, at reaction concentration of 12 nM, 24 nM, or 48 nM, with 240 nM 5057DOX in FAP buffer (50 mM Tris-HCl, pH 7.4, 140 mM NaCl) and incubated at 37° C. Reactions were stopped at 0, 10, 20, or 30 minutes by addition of equal volume of 10 μM Val-boroPro (FAP inhibitor). Doxorubicin was measured by liquid chromatography/mass spectroscopy (LCMS).
# HEK-Mock = assay: Cytotoxicity against tumor lines: HEK-Mock; assay type: cell-based; conditions: Homo sapiens, compound alone
# Description: (§1) Cells from various tumor-derived cell lines were incubated with doxorubicin or 3099DOX, the latter in the presence or absence of FAP, and the EC50 for each was determined.
# HEK-mFAP = assay: Cytotoxicity against tumor lines: HEK-mFAP; assay type: cell-based; conditions: Homo sapiens, compound alone
# Description: as §1
# BxPC-3 = assay: Cytotoxicity against tumor lines: BxPC-3; assay type: cell-based; conditions: Homo sapiens, compound alone
# Description: as §1
# HPAF-II = assay: Cytotoxicity against tumor lines: HPAF-II; assay type: cell-based; conditions: Homo sapiens, compound alone
# Description: as §1
# HT-29 = assay: Cytotoxicity against tumor lines: HT-29; assay type: cell-based; conditions: Homo sapiens, compound alone
# Description: as §1
# [3] = 5057DOX assay 2, 72 hour incubation, read-out: EC50 (prodrug + 25 nM PREP)
# [4] = 5057DOX assay 2, 72 hour incubation, read-out: EC50 (prodrug + 100 uM 2054-9)
# [5] = 5057DOX assay 2, 72 hour incubation, read-out: EC50 (prodrug alone)
# [6] = 5057DOX assay 3, 72 hour incubation, read-out: EC50 (prodrug + 100 uM 2054-9)
# [7] = 5057DOX assay 3, 72 hour incubation, read-out: EC50 (prodrug + 100 uM 3099-15)
# [8] = 5057DOX assay 3, 72 hour incubation, read-out: EC50 (prodrug alone)
# [9] = 5057DOX assay 4, 72 hour incubation, read-out: EC50 (prodrug + 100 uM 5057)
# [10] = 5057DOX assay 4, 72 hour incubation, read-out: EC50 (prodrug alone)
# [11] = 5057DOX assay 5, 72 hour incubation, read-out: EC50 (prodrug + 25 nM FAP)
# [12] = 5057DOX assay 5, 72 hour incubation, read-out: EC50 (prodrug + 100 uM 5057)
# [13] = 5057DOX assay 5, 72 hour incubation, read-out: EC50 (prodrug alone)
# [14] = 5057DOX assay 2, 72 hour incubation, read-out: EC50 (doxorubicin alone)
# [15] = 5057DOX assay 3, 72 hour incubation, read-out: EC50 (doxorubicin alone)
# [16] = 5057DOX assay 4, 72 hour incubation, read-out: EC50 (doxorubicin alone)
# [17] = 5061DOX assay 1, 72 hour incubation, read-out: EC50 (doxorubicin alone)
# [18] = 5061DOX assay 2, 72 hour incubation, read-out: EC50 (doxorubicin alone)
smiles,measurement,setting,value
COc1cccc2c1C(=O)c1c(O)c3c(c(O)c1C2=O)C[C@@](O)(C(=O)CO)C[C@@H]3O[C@H]1C[C@H](NC(=O)[C@@H]2CC(F)(F)CN2C(=O)CNC(=O)c2ccnc3ccccc23)[C@H](O)[C@H](C)O1 [Compound 5057DOX],EC50,"HEK-Mock cells; 5057DOX assay 1, 72 hour incubation, read-out: EC50 (prodrug + 25 nM FAP)",0.036 µM
same,EC50,"HEK-Mock cells; 5057DOX assay 1, 72 hour incubation, read-out: EC50 (prodrug + 25 nM PREP)",0.25 µM
same,EC50,"HEK-Mock cells; 5057DOX assay 1, 72 hour incubation, read-out: EC50 (prodrug alone)",0.48 µM
same,EC50,"HEK-Mock cells; 5057DOX assay 2, 72 hour incubation, read-out: EC50 (prodrug + 25 nM FAP)",0.026 µM
same,EC50,HEK-Mock cells; [3],0.22 µM
same,EC50,HEK-Mock cells; [4],9.8 µM
same,EC50,HEK-Mock cells; [5],0.46 µM
same,EC50,HEK-Mock cells; [6],> 10 µM
same,EC50,HEK-Mock cells; [7],> 100 µM
same,EC50,HEK-Mock cells; [8],2.3 µM
same,EC50,HEK-Mock cells; [9],> 100 µM
same,EC50,HEK-Mock cells; [10],1.1 µM
same,EC50,HEK-mFAP cells; [3],0.11 µM
same,EC50,HEK-mFAP cells; [4],0.74 µM
same,EC50,"HEK-mFAP cells; 5057DOX assay 2, 72 hour incubation, read-out: EC50 (prodrug + 100 uM 3099-15)",> 10 µM
same,EC50,HEK-mFAP cells; [5],0.14 µM
same,EC50,HEK-mFAP cells; [6],5.3 µM
same,EC50,HEK-mFAP cells; [7],> 100 µM
same,EC50,HEK-mFAP cells; [8],0.6 µM
same,EC50,HEK-mFAP cells; [9],> 100 µM
same,EC50,HEK-mFAP cells; [10],0.77 µM
same,EC50,"HEK-mFAP cells; 5057DOX assay 8, 72 hour incubation, read-out: EC50 (prodrug + 100 uM 5057)",> 100 µM
same,EC50,"HEK-mFAP cells; 5057DOX assay 8, 72 hour incubation, read-out: EC50 (prodrug alone)",1.1 µM
same,EC50,MCF-7; read-out: EC50 (prodrug + 25 nM FAP),23 µM
same,EC50,MCF-7; read-out: EC50 (prodrug + 100 uM 5057),> 100 µM
same,EC50,MCF-7; read-out: EC50 (prodrug alone),> 100 µM
same,EC50,OVCAR-3; [11],1 µM
same,EC50,OVCAR-3; [12],> 100 µM
same,EC50,OVCAR-3; [13],> 100 µM
same,EC50,SK-OV-3; [11],0.14 µM
same,EC50,SK-OV-3; [12],56 µM
same,EC50,SK-OV-3; [13],0.83 µM
same,Kcat(Vmax/[E]),"FAP [1]; 5057DOX assay 6, [FAP] 4.00 × 10^−9M",Kcat(Vmax/[E]) 1.30 sec^−1
same,Vmax,"FAP [1]; 5057DOX assay 7, [FAP] 1 nM, Dox standards, Daunorubicin internal standard",Vmax 9.80 × 10^−10M/sec
same,activation by FAP as compared to PREP,FAP [2],selectively activated by FAP as compared to PREP
"COc1cccc2c1C(=O)c1c(O)c3c(c(O)c1C2=O)C[C@@](O)(C(=O)CO)C[C@@H]3O[C@H]1C[C@H](N)[C@H](O)[C@H](C)O1 [doxorubicin, reference compound]",EC50,HEK-Mock,0.05 µM
same,EC50,HEK-mFAP,0.2 µM
same,EC50,BxPC-3,3.1 µM
same,EC50,HPAF-II,2 µM
same,EC50,HT-29,0.4 µM
same,EC50,"HEK-Mock cells; 5057DOX assay 1, 72 hour incubation, read-out: EC50 (doxorubicin alone)",0.036 µM
same,EC50,HEK-Mock cells; [14],0.034 µM
same,EC50,HEK-Mock cells; [15],0.095 µM
same,EC50,HEK-Mock cells; [16],0.092 µM
same,EC50,HEK-Mock cells; [17],0.092 µM
same,EC50,HEK-mFAP cells; [14],0.059 µM
same,EC50,HEK-mFAP cells; [15],0.24 µM
same,EC50,HEK-mFAP cells; [16],0.42 µM
same,EC50,"HEK-mFAP cells; 5057DOX assay 8, 72 hour incubation, read-out: EC50 (doxorubicin)",0.4 µM
same,EC50,HEK-mFAP cells; [17],0.42 µM
same,EC50,"HEK-mFAP cells; 5107DOX assay, 72 hour incubation, read-out: EC50 (doxorubicin)",0.39 µM
same,EC50,MCF-7; read-out: EC50 (doxorubicin alone),54 µM
same,EC50,OVCAR-3; [18],1.7 µM
same,EC50,SK-OV-3; [18],0.44 µM
